Data from patent US20240208986A1, “PHENYL AZEPINES AS RIPK1 INHIBITORS AND METHODS OF USE THEREOF” (Merck Sharp & Dohme LLC, priority 2021, published 2024).

Biological target: RIPK1 (recombinant GST-RIPK1 kinase domain, residues 1-327) (Homo sapiens (Human), UniProt Q13546)
Test: RIPK1-ADP-Glo Enzymatic Assay
Type: biochemical
Settings: 25 nM GST-RIPK1, 300 μM ATP, 3 μM dephosphorylated-MBP; 30 minutes pre-incubation, 150 minutes reaction; ten-point titration
Summary of the method: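 GST-tagged RIPK1 (25 nM) was preincubated 30 min with compound at ambient temperature in HEPES pH 7.3 buffer, then run 150 min with 300 μM ATP and 3 μM dephosphorylated MBP. ADP was read by ADP-Glo luminescence. EC50 came from 10-point, 1:3 titrations (top 100000 nM, 1% DMSO) fitted to a four-parameter model.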

Chain of RIPK1 (recombinant GST-RIPK1 kinase domain, residues 1-327) (Q13546 1-327): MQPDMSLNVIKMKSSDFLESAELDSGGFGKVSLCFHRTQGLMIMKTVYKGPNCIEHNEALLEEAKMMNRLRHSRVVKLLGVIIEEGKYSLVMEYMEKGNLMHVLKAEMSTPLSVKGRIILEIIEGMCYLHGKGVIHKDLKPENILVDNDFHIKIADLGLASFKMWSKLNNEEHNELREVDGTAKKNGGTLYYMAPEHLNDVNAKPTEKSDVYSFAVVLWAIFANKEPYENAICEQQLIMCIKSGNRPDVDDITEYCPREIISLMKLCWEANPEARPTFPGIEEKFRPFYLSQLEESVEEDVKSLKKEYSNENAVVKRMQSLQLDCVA

IC50	SMILES
26 nM	O=C(N1C[C@@H]2C[C@H]1c1ccc(Cl)cc1O2)C12CCC(F)(CC1)C2 [Compound 2-33, ((2S,5S)-8-chloro-2,3-dihydro-2,5-methanobenzo[f][1,4]oxaze-pin-4(5H)-yl)(4-fluorobicyclo[2.2.1]heptan-1-yl)methanone]
27 nM	N#Cc1ccnc(N2CCC(F)(C(=O)N3C[C@@H]4C[C@H]3c3cc(F)cc(F)c3O4)CC2)n1 [Compound 2-34, 2-(4-((2S,5S)-7,9-difluoro-2,3,4,5-tetrahydro-2,5-methanobenzo[f][1,4]oxaze-pine-4-carbonyl)-4-fluoropiperidin-1-yl)pyrimidine-4-carbonitrile]
12 nM	O=C(N1C[C@@H]2C[C@H]1c1cc(F)cc(F)c1O2)C12CCC(F)(CC1)C2 [Compound 2-35, ((2S,5S)-7,9-difluoro-2,3-dihydro-2,5-methanobenzo[f][1,4]oxaze-pin-4(5H)-yl)(4-fluorobicyclo[2.2.1]heptan-1-yl)methanone]
19 nM	N#CC12CCC(C(=O)N3C[C@@H]4C[C@H]3c3cc(F)cc(F)c3O4)(C1)C2 [Compound 2-36, 4-((2S,5S)-7,9-difluoro-2,3,4,5-tetrahydro-2,5-methanobenzo[f][1,4]oxaze-pine-4-carbonyl)bicyclo[2.1.1] hexane-1-carbonitrile]
2240 nM	CC(C)(C)C(=O)N1C[C@H]2Cc3ccccc3[C@@H]1C2 [Compound 3-2, 2,2-dimethyl-1-((1S,4S)-1,3,4,5-tetrahydro-2H-1,4-methanobenzo[c]azepin-2-yl)propan-1-one]
1490 nM	CC(C)(CC#N)C(=O)N1C[C@H]2Cc3ccccc3[C@@H]1C2 [Compound 3-3, 3,3-dimethyl-4-oxo-4-((1S,4S)-1,3,4,5-tetrahydro-2H-1,4-methanobenzo[c]azepin-2-yl)butanenitrile]
17800 nM	CC(C)(C)C(=O)N1C[C@]2(C)C[C@H]1c1ccccc1O2 [Compound 3-5, 2,2-dimethyl-1-((2S,5S)-2-methyl-2,3-dihydro-2,5-methanobenzo[f][1,4]oxaze-pin-4(5H)-yl)propan-1-one]
14700 nM	CC(C)(C(=O)N1C[C@]2(C)C[C@H]1c1ccccc1O2)C(F)F [Compound 3-6, 3,3-difluoro-2,2-dimethyl-1-((2S,5S)-2-methyl-2,3-dihydro-2,5-methanobenzo[f][1,4]oxaze-pin-4(5H)-yl)propan-1-one]
